What all share (format): cell-based
In one assay the target is T1, δ opioid receptor (Homo sapiens, UniProt P41143).
T1 construct: expressed in transfected cells
Kind of assay: FLIPR intracellular calcium signal test, HEK293-δ cells. Conditions: for EC50: EC50 (activation) test, read-out: Delt receptor EC50; for IC50: IC50 (inhibition) test against EC80 of positive agonist, read-out: Delt receptor IC50. Here is the method:
(§1) Fluorescence imaging plate reader FLIPR was used to detect changes of intracellular calcium signals. EC50 and IC50 values of the compounds were used as indicators to evaluate the activation or inhibition of the compounds on μ, κ, and δ opioid receptors.
(§2) Cell lines: HEK293-μ, HEK293-κ and HEK293-δ, stable-transfected cell lines HEK293-μ, HEK293-κ and HEK293-δ; Cell culture media (DMEM, Invitrogen #11965118, 10% fetal bovine serum Invitrogen #10099141, Geneticin Selective Antibiotic (G418) 300 μg/mL, Invitrogen #10131027, Blasticidin-S HCL 2 ug/mL Invitrogen #A1113902)
(§3) 1. Cell Seeding (HEK293-μ, HEK293-κ and HEK293-δ Cells)
(§4) 1) Preheating medium, pancreatic enzyme, and DPBS in a 37° C. water bath. Aspirating the culture medium from the cell culture flask and washing it with 10 mL DPBS;
(§5) 2) Adding the preheated pancreatic enzyme solution to the cell culture flask, rotating the flask slightly to make the pancreatic enzymes evenly cover the cell surface of the flask, and then putting it into a 37° C., 5% CO2 incubator to digest for 1-2 minutes;
(§6) 3) Suspending the cells with 10-15 mL culture medium in each T150 cm^2 cell culture flask, centrifugating at 800 rpm for 5 minutes, and resuspending the cells with 10 mL culture medium, aspirating 1 mL cell resuspension to be counted with Vi-cell;
(§7) 4) Diluting HEK293-μ, HEK293-κ and HEK293-δ cells to 5×10^5/mL with culture medium, use multichannel pipette to add diluted cells into 384 plate (Greiner #781946) (50 μL/well, 25000 cells/well for HEK293-μ, HEK293-κ and HEK293-δ cells). Placing the cell plate in a 37° C., 5% CO2 incubator overnight.
(§8) 2. Adding Compound Samples:
(§9) 1) Diluting the compound to 20 mM with DMSO, 3 fold diluted, 8 gradients, double reduplicative wells, and adding it to the compound plate using an Echo ultrasonic liquid handler device (Echo liquid handler).
(§10) 1) Washing off the cell culture medium in 384 plate with vacuum pump, adding 20 μL Fluo-4 Direct fluorescent dye, then incubating in a 37° C., 5% CO2 incubator for 50 minutes, followed by equilibrating at room temperature for 10 minutes.
(§11) 2) EC50 test: Adding 20 uL HBSS buffer (containing 20 mM HEPES) to the compound plate, mixing well and centrifugating. Placing the cell plate and compound plate into FLIPR and reading the fluorescence value.
(§12) Calculating the EC80 value with the EC50 value of the positive agonist, preparing 4× EC80 solution, adding it to the 384 compound plate by multichannel pipette, and mixing well and centrifugating.
(§13) 4) IC50 test: In FLIPR, successively placing 4× EC80 plate, cell plate, FLIPR tip, running the program and reading the fluorescence value.
(§14) 4. Data Analyzing: Using Prism 5.0 to Analyze the Data and Calculate the EC50 and IC50 Values of the Compounds.
On the technique in general: A change in cytosolic calcium serves as a functional read-out for many receptors and channels.

A further assay deals with T2, μ opioid receptor (Homo sapiens, UniProt P35372).
T2 construct: expressed in transfected cells
T2 sequence (P35372 whole entry): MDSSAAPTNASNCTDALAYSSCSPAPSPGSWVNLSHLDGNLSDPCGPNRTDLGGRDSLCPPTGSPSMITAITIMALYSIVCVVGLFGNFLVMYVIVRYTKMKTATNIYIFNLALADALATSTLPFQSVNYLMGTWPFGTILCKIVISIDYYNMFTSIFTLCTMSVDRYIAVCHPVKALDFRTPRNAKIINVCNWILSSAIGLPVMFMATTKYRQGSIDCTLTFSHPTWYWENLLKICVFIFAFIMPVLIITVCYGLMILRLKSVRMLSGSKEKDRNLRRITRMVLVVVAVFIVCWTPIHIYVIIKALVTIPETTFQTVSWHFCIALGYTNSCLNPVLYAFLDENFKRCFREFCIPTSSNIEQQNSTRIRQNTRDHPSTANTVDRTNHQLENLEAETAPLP
The assay can be described thus: FLIPR intracellular calcium signal test, HEK293-μ cells. The following applies: for EC50: EC50 (activation) test, read-out: Mu receptor EC50; for IC50: IC50 (inhibition) test against EC80 of positive agonist, read-out: Mu receptor IC50. As to the method:
as §1, §2, §3, §4, §5, §6, §7, §8, §9, §10, §11, §12, §13, §14

Another assay deals with T3, κ opioid receptor (Homo sapiens, UniProt P41145).
T3 construct: expressed in transfected cells
T3 sequence (P41145 whole entry): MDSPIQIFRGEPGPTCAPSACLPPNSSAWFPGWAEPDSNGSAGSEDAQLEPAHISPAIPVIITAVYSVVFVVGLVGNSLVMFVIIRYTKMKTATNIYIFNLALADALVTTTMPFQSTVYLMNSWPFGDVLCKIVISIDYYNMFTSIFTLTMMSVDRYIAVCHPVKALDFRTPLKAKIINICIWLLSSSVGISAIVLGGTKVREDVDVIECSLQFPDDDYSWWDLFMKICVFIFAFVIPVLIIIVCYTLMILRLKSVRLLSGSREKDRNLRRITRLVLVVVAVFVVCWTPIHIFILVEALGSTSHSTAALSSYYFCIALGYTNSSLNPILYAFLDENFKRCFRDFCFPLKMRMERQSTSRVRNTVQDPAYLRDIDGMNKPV
The assay can be described thus: FLIPR intracellular calcium signal test, HEK293-κ cells. The following applies: for EC50: EC50 (activation) test, read-out: Kapp receptor EC50; for IC50: IC50 (inhibition) test against EC80 of positive agonist, read-out: Kapp receptor IC50. As to the method:
as §1, §2, §3, §4, §5, §6, §7, §8, §9, §10, §11, §12, §13, §14

Molecules are shown by their SMILES. A value given as a limit tells only on which side of the number the result lay.

T1 sequence (P41143 whole entry): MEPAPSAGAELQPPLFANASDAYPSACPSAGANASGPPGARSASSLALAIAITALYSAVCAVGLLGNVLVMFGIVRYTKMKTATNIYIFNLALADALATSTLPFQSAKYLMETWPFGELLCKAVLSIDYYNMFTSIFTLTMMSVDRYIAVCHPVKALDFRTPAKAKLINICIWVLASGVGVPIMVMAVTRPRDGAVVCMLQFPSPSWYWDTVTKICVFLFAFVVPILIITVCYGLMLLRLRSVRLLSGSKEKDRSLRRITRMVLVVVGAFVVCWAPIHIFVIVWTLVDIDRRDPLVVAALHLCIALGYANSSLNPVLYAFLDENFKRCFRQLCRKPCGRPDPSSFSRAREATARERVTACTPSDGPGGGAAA

With `CC12CCCCC(Cc3c(F)cc(O)cc31)C2N` (single isomer, unassigned) [Compound 32], the EC50 (usually the concentration at which the effect is half-maximal) on δ opioid receptor was more than 100 µM; on μ opioid receptor, 0.1 to 1 µM; at κ opioid receptor, 0.1 to 1 µM. Besides, the IC50 (in general, the midpoint of a concentration-inhibition curve) is 1 to 10 µM on δ opioid receptor, 0.1 to 1 µM at μ opioid receptor and 0.1 to 1 µM on κ opioid receptor.

As to `CC12CCCCC(Cc3c(F)cc(O)cc31)C2N` (single isomer, unassigned) [Compound 33], the EC50 is 1 to 10 µM at δ opioid receptor, 0.1 to 1 µM at μ opioid receptor and 0.1 to 1 µM on κ opioid receptor. For the same compound, the values for the IC50 at δ opioid receptor, on μ opioid receptor and at κ opioid receptor were 1 to 10 µM, 1 to 10 µM and 0.1 to 1 µM, respectively.

As for `Cc1cc(O)cc2c1CC1CCCCCC2(C)C1N` (stereo not shown) [Compound 1], the EC50 at δ opioid receptor, on μ opioid receptor and at κ opioid receptor was more than 100 µM throughout. The IC50 is 1 to 10 µM on δ opioid receptor, not above 0.1 µM on μ opioid receptor and 0.1 to 1 µM on κ opioid receptor.

Regarding `CC12CCCCCC(Cc3ccc(O)cc31)C2N` (stereo not shown) [Compound 2, reference compound], at δ opioid receptor, the EC50 was more than 100 µM and the IC50 was more than 100 µM. Moreover, on κ opioid receptor, the EC50 is more than 100 µM and the half-inhibitory concentration (IC50) was in the range of 1 to 10 µM.

Take `CC12CCCCCC(Cc3c(Cl)cc(O)cc31)C2N` (stereo not shown) [Compound 3]: the EC50 at δ opioid receptor is more than 100 µM; at μ opioid receptor, 0.1 to 1 µM; at κ opioid receptor, more than 100 µM. Moreover, the values for the IC50 at δ opioid receptor, on μ opioid receptor and at κ opioid receptor were 1 to 10 µM, 0.1 to 1 µM and 0.1 to 1 µM, respectively.

As for `CC12CCCCCC(Cc3ccc(O)c(F)c31)C2N` (stereo not shown) [Compound 4], the EC50 on δ opioid receptor was more than 100 µM; on μ opioid receptor, 0.1 to 1 µM; on κ opioid receptor it was more than 100 µM. Also, the IC50 at δ opioid receptor was more than 100 µM; on μ opioid receptor, 0.1 to 1 µM; at κ opioid receptor it was 1 to 10 µM.

Consider `CC12CCCCCC(Cc3cc(O)c(O)cc31)C2N` (stereo not shown) [Compound 5], for which the EC50 is more than 100 µM at δ opioid receptor, 1 to 10 µM at μ opioid receptor and 1 to 10 µM on κ opioid receptor. For the same compound, the IC50 at δ opioid receptor is more than 100 µM; on μ opioid receptor, 10 to 100 µM; on κ opioid receptor it was 10 to 100 µM.

`CC12CCCCCC(Cc3c(F)cc(O)cc31)C2N` (stereo not shown) [Compound 6]: the EC50 at δ opioid receptor is more than 100 µM; on μ opioid receptor, not above 0.1 µM; at κ opioid receptor, more than 100 µM. In addition, the results for the IC50 at δ opioid receptor, at μ opioid receptor and on κ opioid receptor were 1 to 10 µM, 0.1 to 1 µM and 1 to 10 µM, respectively.

In the case of `COc1cc(O)cc2c1CC1CCCCCC2(C)C1N` (stereo not shown) [Compound 7], the EC50 on δ opioid receptor, at μ opioid receptor and at κ opioid receptor was more than 100 µM in each case. The IC50 at δ opioid receptor is more than 100 µM; on μ opioid receptor, 1 to 10 µM; at κ opioid receptor, 1 to 10 µM.

Regarding `CC12CCOCCC(Cc3ccc(O)cc31)C2N` (stereo not shown) [Compound 8], the values for the EC50 on δ opioid receptor, at μ opioid receptor and on κ opioid receptor were more than 100 µM, 0.1 to 1 µM and more than 100 µM, respectively. For the same compound, the figures for the IC50 at δ opioid receptor, on μ opioid receptor and on κ opioid receptor were more than 100 µM, 1 to 10 µM and 1 to 10 µM, respectively.

As for `CCc1cc(O)cc2c1CC1CCCCCC2(C)C1N` (stereo not shown) [Compound 9], the EC50 on δ opioid receptor, on μ opioid receptor and at κ opioid receptor was more than 100 µM throughout. For the same compound, the figures for the half-inhibitory concentration (IC50) on δ opioid receptor, on μ opioid receptor and on κ opioid receptor were more than 100 µM, 1 to 10 µM and 1 to 10 µM, respectively.

As to `CC(C)c1cc(O)cc2c1CC1CCCCCC2(C)C1N` (stereo not shown) [Compound 10], the EC50 at δ opioid receptor, at μ opioid receptor and at κ opioid receptor was more than 100 µM in each case. For the same compound, the IC50 at δ opioid receptor is more than 100 µM; on μ opioid receptor it was 10 to 100 µM; on κ opioid receptor, 10 to 100 µM.

On to `CC12CCCCCC(Cc3c(-c4ccccc4)cc(O)cc31)C2N` (stereo not shown) [Compound 11], for which the EC50 on δ opioid receptor was more than 100 µM; at μ opioid receptor it was more than 100 µM; at κ opioid receptor, 10 to 100 µM. The IC50 on δ opioid receptor, at μ opioid receptor and at κ opioid receptor was more than 100 µM throughout.

Turning to `CC12CCCCCC(Cc3cc(Br)c(O)cc31)C2N` (stereo not shown) [Compound 12], the EC50 was more than 100 µM on δ opioid receptor, 10 to 100 µM at μ opioid receptor and more than 100 µM at κ opioid receptor. Further, the figures for the half-maximal inhibitory concentration (IC50) on δ opioid receptor, on μ opioid receptor and on κ opioid receptor were more than 100 µM, 10 to 100 µM and more than 100 µM, respectively.

With `CC(C)c1cc2c(cc1O)C1(C)CCCCCC(C2)C1N` (stereo not shown) [Compound 13], the figures for the EC50 at δ opioid receptor, on μ opioid receptor and at κ opioid receptor were more than 100 µM, 10 to 100 µM and 10 to 100 µM, respectively. Further, the IC50 at δ opioid receptor was more than 100 µM; at μ opioid receptor, 10 to 100 µM; on κ opioid receptor, 10 to 100 µM.

Take `Cc1cc2c(cc1O)C1(C)CCCCCC(C2)C1N` (stereo not shown) [Compound 14]: the EC50 at δ opioid receptor is more than 100 µM; at μ opioid receptor it was 10 to 100 µM; at κ opioid receptor, more than 100 µM. The IC50 on δ opioid receptor was more than 100 µM; on μ opioid receptor it was 10 to 100 µM; on κ opioid receptor it was 10 to 100 µM.

As to `CC12CCCCCC(Cc3cc(C4CC4)c(O)cc31)C2N` (stereo not shown) [Compound 15], the EC50 was more than 100 µM on δ opioid receptor, more than 100 µM at μ opioid receptor and 10 to 100 µM on κ opioid receptor. Also, the IC50 on δ opioid receptor, on μ opioid receptor and on κ opioid receptor was more than 100 µM each time.

As for `CC12CCCCCC(Cc3c(CO)cc(O)cc31)C2N` (stereo not shown) [Compound 18], the EC50 on δ opioid receptor, at μ opioid receptor and at κ opioid receptor was more than 100 µM throughout. Also, the IC50 is more than 100 µM at δ opioid receptor, 1 to 10 µM on μ opioid receptor and more than 100 µM on κ opioid receptor.

Turning to `CC12CCCCCC(Cc3cc(C#N)c(O)cc31)C2N` (stereo not shown) [Compound 19], the EC50 on δ opioid receptor, at μ opioid receptor and on κ opioid receptor was more than 100 µM each time. The IC50 at δ opioid receptor, on μ opioid receptor and on κ opioid receptor was more than 100 µM in each case.

Take `CC12CCCCCC(Cc3cc(Cl)c(O)c(Cl)c31)C2N` (stereo not shown) [Compound 20]: the concentration for a half-maximal effect (EC50) on δ opioid receptor, at μ opioid receptor and at κ opioid receptor was more than 100 µM in each case. For the same compound, the IC50 on δ opioid receptor was more than 100 µM; on μ opioid receptor, 10 to 100 µM; on κ opioid receptor, 10 to 100 µM.

For `C[C@]12CCCCC[C@H](Cc3c(F)cc(O)cc31)[C@@H]2N` [Compound 22], the results for the EC50 on δ opioid receptor, at μ opioid receptor and on κ opioid receptor were more than 100 µM, 1 to 10 µM and more than 100 µM, respectively. For the same compound, the figures for the IC50 at δ opioid receptor, at μ opioid receptor and on κ opioid receptor were 10 to 100 µM, 0.1 to 1 µM and 1 to 10 µM, respectively.

For the compound `C[C@]12CCCCC[C@H](Cc3c(Cl)cc(O)cc31)[C@H]2N` [Compound 24], the half-maximal effective concentration (EC50) at δ opioid receptor is more than 100 µM; at μ opioid receptor, 10 to 100 µM; at κ opioid receptor it was more than 100 µM. Also, the figures for the IC50 at δ opioid receptor, at μ opioid receptor and on κ opioid receptor were 1 to 10 µM, 0.1 to 1 µM and 1 to 10 µM, respectively.

Regarding `C[C@@]12CCOCC[C@@H](Cc3ccc(O)cc31)[C@@H]2N` [Compound 25], the EC50 on δ opioid receptor is more than 100 µM; on μ opioid receptor, 0.1 to 1 µM; at κ opioid receptor, more than 100 µM. Also, the IC50 on δ opioid receptor, at μ opioid receptor and on κ opioid receptor was 1 to 10 µM in each case.

Turning to `C[C@]12CCOCC[C@H](Cc3ccc(O)cc31)[C@H]2N` [Compound 26], the EC50 at δ opioid receptor, at μ opioid receptor and on κ opioid receptor was more than 100 µM in each case. The IC50 at δ opioid receptor was more than 100 µM; on μ opioid receptor, 10 to 100 µM; on κ opioid receptor, more than 100 µM.

The record behind these values is patent US10414718B2, “Dezocine analogue” (priority 2016, dated 2019).
